PubChem BioAssay (NCI)
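Compound exposure: 48 hours, 5 concentrations, 96-well plates. GI50 is the concentration that inhibits growth by half. At the TGI there is no net growth.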

Tests used:
Assay in all cases: NCI tumour cell line growth inhibition, 48 h
HOP-62 NSCLC = tested on: HOP-62 NSCLC
MDA-N = tested on: MDA-N
MDA-MB-231 breast = tested on: MDA-MB-231 breast
T-47D breast = tested on: T-47D breast
LOX IMVI melanoma = tested on: LOX IMVI melanoma
A498 renal = tested on: A498 renal
BT-549 breast = tested on: BT-549 breast
DMS 273 small cell lung = tested on: DMS 273 small cell lung
SNB-78 CNS = tested on: SNB-78 CNS
NCI-H522 lung = tested on: NCI-H522 lung
DMS 114 small cell lung = tested on: DMS 114 small cell lung
KM20L2 colon = tested on: KM20L2 colon
M19-MEL melanoma = tested on: M19-MEL melanoma
HOP-18 NSCLC = tested on: HOP-18 NSCLC
SN12K1 renal = tested on: SN12K1 renal
P388 leukemia = tested on: P388 leukemia

Row | SMILES | TGI (HOP-62 NSCLC) [µM] | TGI (MDA-N) [µM] | TGI (MDA-MB-231 breast) [µM] | TGI (T-47D breast) [µM] | TGI (LOX IMVI melanoma) [µM] | TGI (A498 renal) [µM] | TGI (BT-549 breast) [µM] | TGI (DMS 273 small cell lung) [µM] | TGI (SNB-78 CNS) [µM] | TGI (NCI-H522 lung) [µM] | TGI (DMS 114 small cell lung) [µM] | TGI (KM20L2 colon) [µM] | TGI (M19-MEL melanoma) [µM] | TGI (HOP-18 NSCLC) [µM] | TGI (SN12K1 renal) [µM] | TGI (P388 leukemia) [µM] | GI50 (HOP-62 NSCLC) [nM] | GI50 (NCI-H522 lung) [nM] | GI50 (A498 renal) [nM] | GI50 (LOX IMVI melanoma) [µM]
1 | COc1ccc2cc(/C=N/NC(=O)Nc3ccccc3)ccc2c1 | > 100 | > 100 | > 100 | > 100 | > 100 | > 100 | > 100 | – | – | – | – | – | – | – | – | – | – | – | – | –
2 | CC(OC(C)(C)C)[C@H](NC(=O)OCC(Cl)(Cl)Cl)C(=O)O (stereo not given in full) | > 100 | – | – | – | – | > 100 | – | > 100 | > 100 | > 100 | > 100 | > 100 | > 100 | – | – | – | – | – | – | –
3 | O=c1cnn(C/C=C/CO)c(=O)[nH]1 | > 100 | > 100 | > 100 | > 100 | 86 | > 100 | > 100 | – | – | > 100 | – | – | – | – | – | – | – | – | – | –
4 | Cc1[nH]nc(C(F)(F)F)c1N=NN1CCOCC1 | 28.5 | – | 27.1 | > 42.8 | 18.3 | 32.6 | 25.1 | – | – | 8.7 | – | – | – | – | – | – | – | – | – | –
5 | O=C(O)CCC(NC(=O)c1ccc(Nc2nc3cc(C(F)(F)F)ccc3nc2-c2ccccc2)cc1)C(=O)O (stereo not given) | > 100 | – | – | – | > 100 | > 100 | – | 46.6 | > 100 | > 91.6 | > 100 | 53.3 | > 100 | > 100 | > 100 | > 100 | – | – | – | –
6 | CC1(CCOCc2ccccc2)NC(=O)NC1=O (stereo not given) | > 100 | > 100 | > 100 | – | > 100 | > 100 | > 100 | – | – | > 100 | – | – | – | – | – | – | – | – | – | –
7 | CCC(/C=C/C1OC(=O)C=CC1C)=C\C(C)C/C=C/C(C)=C/C(C)C(=O)C(C)C(O)C(C)C/C(C)=C/C(=O)O (stereo not given) | – | 0.000118 | – | – | 0.00119 | – | – | 27.1 | 14.3 | – | 4.18 | 8.33 | 6.49 | 16.3 | 4.74 | 6.6 | 0.0236 | 0.00622 | 0.00131 | –
8 | C=C(C)[C@@H]1CC[C@]2(C(=O)NC3CCCCC3)CC[C@]3(C)[C@H](CC[C@@H]4[C@@]5(C)CCCNC(C)(C)[C@@H]5CC[C@]43C)[C@@H]12 | – | – | – | – | – | 28.8 | – | – | – | – | – | – | – | – | – | – | – | – | 14300 | –
9 | c1ccc(CCNc2ccccn2)nc1 | > 100 | > 100 | > 100 | – | > 100 | > 100 | > 100 | – | – | > 100 | – | – | – | – | – | – | – | – | – | –
10 | CC1(C)N=C(N)N=C(N)N1c1ccc(CCc2ccccc2)cc1 | – | – | – | – | > 100 | > 100 | – | 17.5 | > 100 | 33.9 | 52.5 | > 100 | 38.7 | 97.3 | > 100 | 12.3 | – | – | – | –
11 | O=C(Cn1c[n+](CC(=O)c2ccc(-c3ccccc3)cc2)c2ccccc21)Nc1cccc2cccnc12 | – | – | – | – | 3.03 | 4.84 | – | – | – | 3.25 | – | – | – | – | – | – | – | 1530 | 1040 | 1.54
12 | NCc1ccccc1-c1c2nc(c(-c3ccccc3CN)c3ccc([nH]3)c(-c3ccccc3CN)c3nc(c(-c4ccccc4CN)c4ccc1[nH]4)C=C3)C=C2 | 60.4 | – | – | – | 56.3 | – | – | 46.4 | 40.9 | – | – | 63 | 50.7 | 8.81 | – | – | – | – | – | –
